# Results published in patent publication US8962690B2, “Compositions of dibromomalonamide and their use as biocides” (priority 2009, dated 2015).
# Structures can show the parent of a compound that is named as a salt. Where two headings read alike, the source gives them in different places.
# How the values were obtained:
# [1] = tested on: mixture of Pseudomonas aeruginosa ATCC 10145 and Staphylococcus aureus ATCC 6538; assay: Kill Assay (minimum biocide concentration, MBC); type: cell-based; conditions: 2 h
# Method: Kill Assay. This assay is used as a preliminary evaluation of synergy between the actives. The procedure is as follows. A mineral salts solution (0.2203 g of CaCl2, 0.1847 g of MgSO4, and 0.2033 g of NaHCO3 in 1 L water, approximately pH 8) is inoculated with equal amounts (about 10^7CFU/ml) of a mixture of Pseudomonas aeruginosa ATCC 10145 and Staphylococcus aureus ATCC 6538. Aliquots of the cell suspension are then treated with 2,2-dibromomalonamide (“DBMAL”), a surface active biocide, and their combinations at various concentration levels. […] The MBC values are then used to calculate a synergy index (SI) values. Summaries of the kill assay results are presented in the individual Examples. In each table, MBC values for each biocide and the blends tested are presented. Likewise, the Synergy Index (“SI”) values for the combinations are listed. SI is calculated with the following equation: Synergy Index=Ca/CA+Mb/CB where • Ca: Concentration of biocide A required for complete bacterial kill when used in combination with biocide B • CA: Concentration of biocide A required for complete bacterial kill when used alone • Cb: Concentration of biocide B required for complete bacterial kill when used in combination with biocide A • CB: […] Antagonistic
# [2] = tested on: mixture of Pseudomonas aeruginosa, Klebsiella pneumoniae, Staphylococcus aureus, and Bacillus subtilis; assay: Growth Inhibition Assay (microtiter plate, OD580); type: cell-based; conditions: for inhibition at 0.39 µg/mL / inhibition at 0.78 µg/mL / inhibition at 1.56 µg/mL / inhibition at 3.13 µg/mL / inhibition at 6.25 µg/mL / inhibition at 12.5 µg/mL / inhibition at 25 µg/mL: 24 h
# Text: Regardless of the mechanism of action, the impact of a biocide (or combination of biocides) can be measured over time on the basis of an increase in the size of the community.
# The assay measures the efficacy of one or more biocides at preventing growth of a consortium of bacteria in a dilute mineral salts medium. The medium contains (in mg/l) the following components: FeCl3.6H2O (1); CaCl2.2H2O (10); MgSO4.7H2O (22.5); (NH4)2SO4 (40); KH2PO4 (10); K2HPO4 (25.5); Yeast Extract (10); and glucose (100). After all components are added to deionized water, the pH of the medium is adjusted to 7.5. Following filter sterilization, aliquots are dispensed in 100 ul quantities to sterile microtiter plate wells. Dilutions of DBMAL and/or “Biocide B” are then added to the microtiter plate. After preparing the combinations of actives as illustrated below, each well is inoculated with 100 μl of a cell suspension containing ca. 1×10^6 cells per milliliter of a mixture of Pseudomonas aeruginosa, Klebsiella pneumoniae, Staphylococcus aureus, and Bacillus subtilis. The final total volume of medium in each well is 300 μl. Once prepared as described herein, the concentration of each active ranges from 25 ppm to 0.195 ppm as illustrated in Table 1. The resulting matrix allows testing of eight concentrations of each active and 64 combinations of actives in the ratios (of actives).
# Controls (not shown) contain the medium with no biocide added. After preparing the combinations of actives as illustrated above, each well is inoculated with 100 μl of a cell suspension containing ca. 1×10^6 cells per milliliter of a mixture of Pseudomonas aeruginosa, Klebsiella pneumoniae, Staphylococcus aureus, and Bacillus subtilis. The final total volume of medium in each well is 300 μl.
# Immediately after the microtiter plates are prepared, the optical density (OD) readings for each well is measured at 580 nm and the plates are then incubated at 37° C. for 24 hr. After the incubation period, the plates are gently agitated before OD580 values are collected. The OD580 values at T0 are subtracted from T24 values to determine the total amount of growth (or lack thereof) that occurs. These values are used to calculate the percent inhibition of growth caused by the presence of each biocide and each of the 64 combinations.
# where • CDBMAL: Concentration of DBMAL required to inhibit ˜90% of bacterial growth when used alone • CB: Concentration of biocide (B) required to inhibit ˜90% of bacterial growth when used alone. • MDBMAL: Concentration of DBMAL required to inhibit ˜90% of bacterial growth when used in combination with biocide (B). • MB: Concentration of biocide (B) required to inhibit ˜90% of bacterial growth when used in combination with DBMAL The SI values are interpreted as follows: • SI<1: Synergistic • SI=1: Additive • SI>1: Antagonistic
# In the Examples below, the amounts of biocides in the solution are measured in mg per liter of solution (mg/l). Since solution densities are approximately 1.00, the mg/l measurement corresponds to weight ppm. Both units may therefore be used interchangeably in the Examples.
# [3] = read-out: % Inhibition of growth by DGH
# [4] = read-out: % Inhibition of growth by DDMAC
compound,measurement,setting,value
"NC(=O)C(Br)(Br)C(N)=O [DBMAL, 2,2-dibromomalonamide]",MBC,"[1]; read-out: MBC, 1st biocide DBMAL",66.7 µg/mL
same,inhibition at 0.39 µg/mL,"[2]; DBMAL alone 0.39 mg/l, 24 hr (Table 3), read-out: % Inhibition of growth by DBMAL",28%
same,inhibition at 0.39 µg/mL,"[2]; DBMAL alone 0.39 mg/l, 24 hr (Table 7), read-out: % Inhibition of growth by DBMAL",19%
same,inhibition at 0.78 µg/mL,"[2]; DBMAL alone 0.78 mg/l, 24 hr (Table 3), read-out: % Inhibition of growth by DBMAL",34%
same,inhibition at 0.78 µg/mL,"[2]; DBMAL alone 0.78 mg/l, 24 hr (Table 5), read-out: % Inhibition of growth by DBMAL",3%
same,inhibition at 0.78 µg/mL,"[2]; DBMAL alone 0.78 mg/l, 24 hr (Table 7), read-out: % Inhibition of growth by DBMAL",14%
same,inhibition at 1.56 µg/mL,"[2]; DBMAL alone 1.56 mg/l, 24 hr (Table 3), read-out: % Inhibition of growth by DBMAL",26%
same,inhibition at 1.56 µg/mL,"[2]; DBMAL alone 1.56 mg/l, 24 hr (Table 7), read-out: % Inhibition of growth by DBMAL",8%
same,inhibition at 3.13 µg/mL,"[2]; DBMAL alone 3.13 mg/l, 24 hr (Table 3), read-out: % Inhibition of growth by DBMAL",1%
same,inhibition at 3.13 µg/mL,"[2]; DBMAL alone 3.13 mg/l, 24 hr (Table 5), read-out: % Inhibition of growth by DBMAL",1%
same,inhibition at 3.13 µg/mL,"[2]; DBMAL alone 3.13 mg/l, 24 hr (Table 7), read-out: % Inhibition of growth by DBMAL",10%
same,inhibition at 6.25 µg/mL,"[2]; DBMAL alone 6.25 mg/l, 24 hr (Table 5), read-out: % Inhibition of growth by DBMAL",5%
same,inhibition at 6.25 µg/mL,"[2]; DBMAL alone 6.25 mg/l, 24 hr (Table 7), read-out: % Inhibition of growth by DBMAL",16%
same,inhibition at 6.25 µg/mL,"[2]; DBMAL alone 6.25 mg/l, 24 hr (Table 9), read-out: % Inhibition of growth by DBMAL",18%
"CCCCCCCCCCCCNC(=N)N [DGH, dodecylguanidine hydrochloride]",inhibition at 0.39 µg/mL,[2]; [3],3%
same,inhibition at 0.78 µg/mL,[2]; [3],0%
same,inhibition at 1.56 µg/mL,[2]; [3],0%
same,inhibition at 3.13 µg/mL,[2]; [3],3%
same,inhibition at 6.25 µg/mL,[2]; [3],52%
same,inhibition at 12.5 µg/mL,[2]; [3],100%
same,inhibition at 25 µg/mL,[2]; [3],100%
"CCCCCCCC[N+](C)(C)CCCCCCCC.[Cl-] [DDAC, dioctyl dimethyl ammonium chloride]",MBC,"[1]; read-out: MBC, 2nd biocide DDAC",> 150 µg/mL
"CCCCCCCCCC[N+](C)(C)CCCCCCCCCC [DDMAC, didecyldimethyl ammonium chloride]",inhibition at 0.39 µg/mL,[2]; [4],12%
same,inhibition at 0.78 µg/mL,[2]; [4],23%
same,inhibition at 1.56 µg/mL,[2]; [4],26%
same,inhibition at 3.13 µg/mL,[2]; [4],46%
same,inhibition at 6.25 µg/mL,[2]; [4],100%
same,inhibition at 12.5 µg/mL,[2]; [4],100%
same,inhibition at 25 µg/mL,[2]; [4],100%
C12-C16 alkyl dimethyl benzyl ammonium chloride [ADBAC],% Inhibition of growth by ADBAC,"[2]; ADBAC alone 0.78 mg/l, 24 hr",6%
same,% Inhibition of growth by ADBAC,"[2]; ADBAC alone 1.56 mg/l, 24 hr",50%
same,90% inhibition of growth concentration (I90),"[2]; single active, 24 hr",3.13 mg/L
